The record followed here is ChEMBL document CHEMBL1201862, “PubChem BioAssay data set” (2004).

Where “and” joins values, the source holds several entries; their conditions need not be identical. Identical values can stand only once. Calls of active or inactive are those of the source. A value given as a limit tells only on which side of the number the result lay.

Experiment [1] deals with T1, Histone-lysine N-methyltransferase NSD2 (Homo sapiens, UniProt O96028).
T1 sequence (O96028 whole entry): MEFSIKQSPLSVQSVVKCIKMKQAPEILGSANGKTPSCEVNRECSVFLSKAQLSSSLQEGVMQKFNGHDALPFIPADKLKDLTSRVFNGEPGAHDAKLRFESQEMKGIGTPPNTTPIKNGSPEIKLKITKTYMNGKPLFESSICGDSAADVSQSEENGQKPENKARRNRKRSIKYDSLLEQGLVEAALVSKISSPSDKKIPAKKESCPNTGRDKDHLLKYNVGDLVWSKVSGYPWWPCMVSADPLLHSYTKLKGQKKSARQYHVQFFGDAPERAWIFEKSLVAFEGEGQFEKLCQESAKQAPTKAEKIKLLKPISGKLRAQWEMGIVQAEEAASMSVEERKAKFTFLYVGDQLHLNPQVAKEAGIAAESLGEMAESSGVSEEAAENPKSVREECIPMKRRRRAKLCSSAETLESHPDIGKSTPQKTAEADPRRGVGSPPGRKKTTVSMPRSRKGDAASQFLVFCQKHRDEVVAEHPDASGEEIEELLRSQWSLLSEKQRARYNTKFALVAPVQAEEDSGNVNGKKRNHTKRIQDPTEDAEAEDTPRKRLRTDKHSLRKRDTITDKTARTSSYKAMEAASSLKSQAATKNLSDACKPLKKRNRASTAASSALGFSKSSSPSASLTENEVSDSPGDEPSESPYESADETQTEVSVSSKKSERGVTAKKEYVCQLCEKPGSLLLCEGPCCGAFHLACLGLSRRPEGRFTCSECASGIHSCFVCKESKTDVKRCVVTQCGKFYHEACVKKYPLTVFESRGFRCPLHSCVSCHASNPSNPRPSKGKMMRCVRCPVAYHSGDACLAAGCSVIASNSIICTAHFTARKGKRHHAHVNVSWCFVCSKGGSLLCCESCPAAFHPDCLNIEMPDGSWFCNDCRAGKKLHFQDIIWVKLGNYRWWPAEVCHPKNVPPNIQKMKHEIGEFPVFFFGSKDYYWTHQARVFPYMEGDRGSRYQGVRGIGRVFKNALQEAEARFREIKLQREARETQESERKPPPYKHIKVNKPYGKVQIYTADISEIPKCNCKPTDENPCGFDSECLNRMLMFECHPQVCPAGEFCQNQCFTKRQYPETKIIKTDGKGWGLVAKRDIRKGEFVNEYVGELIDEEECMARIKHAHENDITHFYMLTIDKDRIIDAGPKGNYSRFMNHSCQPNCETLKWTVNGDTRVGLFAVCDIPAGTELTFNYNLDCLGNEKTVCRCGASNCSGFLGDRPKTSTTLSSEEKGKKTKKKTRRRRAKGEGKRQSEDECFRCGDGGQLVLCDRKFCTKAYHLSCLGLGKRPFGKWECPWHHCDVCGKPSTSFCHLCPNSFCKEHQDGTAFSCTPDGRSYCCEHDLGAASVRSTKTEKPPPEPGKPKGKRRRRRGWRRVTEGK
It counts as biochemical.

In experiment [2] the target is Tyrosyl-DNA phosphodiesterase 2 (Homo sapiens, UniProt O95551). Nature of the experiment: potency against TDP2 phosphodiesterase activity – biochemical, epi absorbance, IC50, dose response (AID 743297).
The next experiment deals with T2, Caspase-3 (Homo sapiens, UniProt P42574).
T2 sequence (P42574 whole entry): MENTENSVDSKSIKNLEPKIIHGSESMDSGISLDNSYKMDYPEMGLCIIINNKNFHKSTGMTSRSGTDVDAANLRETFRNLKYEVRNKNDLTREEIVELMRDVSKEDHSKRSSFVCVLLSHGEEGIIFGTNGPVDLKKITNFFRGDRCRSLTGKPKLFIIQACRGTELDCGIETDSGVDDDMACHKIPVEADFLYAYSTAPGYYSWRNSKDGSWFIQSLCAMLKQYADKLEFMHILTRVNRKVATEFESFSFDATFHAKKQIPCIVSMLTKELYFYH
It counts as functional.

The target of experiment [3] is Ras and Rab interactor 1/Tyrosine-protein kinase ABL1 (Homo sapiens, UniProt P00519+Q13671). Type of experiment: functional.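 Also: biochemical TR-FRET dose-response test measuring inhibition of binding between Rin1 and Abl proteins.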
The nature of experiment [4]: fluconazole-exposed Candida albicans growth modulators – fluorescence, retest, confirmation (AID 2467). Type of experiment: functional, cell-based.
Experiment [5] relates to Streptococcus sp. 'group A'. Kind of experiment: Streptococcus pyogenes SK(-)GAS viability under kanamycin – luminescence, BacTiterGlo, confirmation, counter-screen for streptokinase expression inhibitor project, dose response (AID 1900). It counts as functional, organism-based. A general note: The purpose of a counterscreen is to sort out artefacts and off-target activity.

The next experiment concerns Streptococcus. Kind of experiment: GAS UMAA2166 growth inhibition – luminescence, BacTiterGlo, counter-screen for streptokinase expression inhibitor project, dose response (AID 1915).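 Also: potency for reduction of bacterial viability or growth.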 Type of experiment: functional, organism-based.
For experiment [6], the target named is Heat shock protein HSP 90-alpha (Homo sapiens, UniProt P07900). Type of experiment: functional, organism-based.
For another experiment, the target named is Fatty acid synthase (Homo sapiens, UniProt P49327). Nature of the experiment: inhibition of human FAS-TE enzyme activity – biochemical, kinetic fluorescence intensity, dose response (AID 624326).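 Also: rate of fluorescence rise from hydrolysis of a fluorogenic O-methyl fluorescein ester substrate.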 Type of experiment: functional.
The target in the next experiment is T3, Streptokinase A (Streptococcus pyogenes serotype M1, UniProt P10520).
T3 sequence (P10520 whole entry): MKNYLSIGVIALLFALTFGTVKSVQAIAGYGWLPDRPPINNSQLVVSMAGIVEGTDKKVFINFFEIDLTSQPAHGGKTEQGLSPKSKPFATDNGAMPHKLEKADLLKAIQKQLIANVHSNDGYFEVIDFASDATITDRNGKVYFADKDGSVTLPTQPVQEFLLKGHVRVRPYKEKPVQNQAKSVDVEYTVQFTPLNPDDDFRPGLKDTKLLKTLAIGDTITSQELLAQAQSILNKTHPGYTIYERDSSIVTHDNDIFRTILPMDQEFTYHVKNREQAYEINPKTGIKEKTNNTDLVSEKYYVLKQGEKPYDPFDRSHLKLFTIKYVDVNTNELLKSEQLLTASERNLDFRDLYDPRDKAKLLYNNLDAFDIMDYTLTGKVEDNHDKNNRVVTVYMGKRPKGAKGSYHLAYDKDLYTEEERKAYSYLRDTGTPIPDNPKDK
Nature of the experiment: viability-normalized secreted streptokinase activity reduction – plasminogen activation absorbance, OD405, dose response (AID 1914).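 Also: secreted streptokinase activity via plasminogen activation per viability signal from cell pellet.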 Type of experiment: functional, Streptococcus pyogenes M1 GAS.

Experiment [7] in a line: NIH3T3 cell viability loss – ATP luminescence, mouse fibroblasts, counter-screen, dose response (AID 2010).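 Also: cells exposed to compound for about 90 hours before reading.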 It counts as functional, cell-based.
A further experiment deals with Phospholipase A2 (Homo sapiens, UniProt P04054). Type of experiment: functional.
The nature of experiment [8]: viability loss in CEM21 cells – cell-based, CellTiter-Glo luminescence, cherry-picked, cytotoxicity control for viral fusion inhibitor project, dose response (AID 652042).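 Also: potency for signal decrease meaning cytotoxicity.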 Type of experiment: functional.
Experiment [9] can be described thus: viability of uninfected HEp-2 cells – cell-based, HTS, cytotoxicity control for RSV inhibitor project, dose response (AID 2410). It counts as functional. The conditions noted are these: human respiratory syncytial virus.
The target of experiment [10] is Peroxisome proliferator-activated receptor gamma/Nuclear receptor coactivator 1 (Homo sapiens, UniProt P37231). Type of experiment: functional.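 Also: agonist potency as compounds enhance coactivator SRC-1 recruitment to PPARgamma.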

Sequence of Ras and Rab interactor 1/Tyrosine-protein kinase ABL1 (P00519 whole entry): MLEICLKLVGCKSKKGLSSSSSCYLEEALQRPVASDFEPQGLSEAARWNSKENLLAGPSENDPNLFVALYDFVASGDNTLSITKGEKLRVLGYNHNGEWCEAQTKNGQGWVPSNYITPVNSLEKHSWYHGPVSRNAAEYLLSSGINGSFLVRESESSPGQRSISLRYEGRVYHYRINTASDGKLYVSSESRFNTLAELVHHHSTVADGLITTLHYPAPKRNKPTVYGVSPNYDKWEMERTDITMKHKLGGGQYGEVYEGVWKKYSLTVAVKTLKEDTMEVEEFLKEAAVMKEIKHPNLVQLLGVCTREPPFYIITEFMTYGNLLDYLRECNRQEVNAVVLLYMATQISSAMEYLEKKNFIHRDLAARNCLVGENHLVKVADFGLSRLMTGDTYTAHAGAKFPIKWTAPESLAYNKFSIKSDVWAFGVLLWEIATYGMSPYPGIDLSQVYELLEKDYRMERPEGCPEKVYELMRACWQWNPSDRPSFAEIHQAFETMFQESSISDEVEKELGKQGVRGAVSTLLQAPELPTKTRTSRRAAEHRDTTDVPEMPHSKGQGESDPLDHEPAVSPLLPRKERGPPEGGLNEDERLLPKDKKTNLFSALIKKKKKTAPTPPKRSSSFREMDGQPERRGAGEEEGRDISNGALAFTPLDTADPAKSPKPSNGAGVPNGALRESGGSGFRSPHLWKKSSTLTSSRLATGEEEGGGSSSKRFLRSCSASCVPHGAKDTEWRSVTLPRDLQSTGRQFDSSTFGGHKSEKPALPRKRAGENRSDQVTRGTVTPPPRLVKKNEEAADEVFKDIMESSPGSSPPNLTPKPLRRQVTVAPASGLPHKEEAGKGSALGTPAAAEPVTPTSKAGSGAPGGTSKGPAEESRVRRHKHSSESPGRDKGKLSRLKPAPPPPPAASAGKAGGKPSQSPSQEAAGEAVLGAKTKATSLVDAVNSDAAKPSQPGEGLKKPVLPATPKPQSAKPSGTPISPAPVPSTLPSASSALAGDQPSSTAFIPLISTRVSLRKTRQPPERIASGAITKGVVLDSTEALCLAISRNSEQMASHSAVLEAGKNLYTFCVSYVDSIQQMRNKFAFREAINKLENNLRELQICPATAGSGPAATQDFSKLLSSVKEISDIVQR
Sequence of Ras and Rab interactor 1/Tyrosine-protein kinase ABL1 (Q13671 whole entry): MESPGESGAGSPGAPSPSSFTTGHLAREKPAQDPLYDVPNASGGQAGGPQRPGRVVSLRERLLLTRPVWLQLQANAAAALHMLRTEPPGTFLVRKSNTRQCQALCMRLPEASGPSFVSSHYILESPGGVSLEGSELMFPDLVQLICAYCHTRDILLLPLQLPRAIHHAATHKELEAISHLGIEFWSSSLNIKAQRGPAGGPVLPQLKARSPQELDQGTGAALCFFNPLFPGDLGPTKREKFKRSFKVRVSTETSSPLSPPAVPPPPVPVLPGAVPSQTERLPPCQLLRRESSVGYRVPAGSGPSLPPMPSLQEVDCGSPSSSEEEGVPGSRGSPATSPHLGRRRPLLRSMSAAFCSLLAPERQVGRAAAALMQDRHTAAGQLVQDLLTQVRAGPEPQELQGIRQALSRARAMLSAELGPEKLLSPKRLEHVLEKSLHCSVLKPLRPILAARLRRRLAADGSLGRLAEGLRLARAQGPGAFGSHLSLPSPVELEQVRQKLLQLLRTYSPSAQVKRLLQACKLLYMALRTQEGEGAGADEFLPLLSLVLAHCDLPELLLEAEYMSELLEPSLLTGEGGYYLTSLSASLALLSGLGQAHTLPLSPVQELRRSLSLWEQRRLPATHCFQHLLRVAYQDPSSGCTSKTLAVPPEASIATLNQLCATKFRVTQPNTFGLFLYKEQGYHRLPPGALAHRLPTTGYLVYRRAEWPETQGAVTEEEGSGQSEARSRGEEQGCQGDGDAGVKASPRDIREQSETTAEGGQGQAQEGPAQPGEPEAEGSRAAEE
Sequence of Fatty acid synthase (P49327 whole entry): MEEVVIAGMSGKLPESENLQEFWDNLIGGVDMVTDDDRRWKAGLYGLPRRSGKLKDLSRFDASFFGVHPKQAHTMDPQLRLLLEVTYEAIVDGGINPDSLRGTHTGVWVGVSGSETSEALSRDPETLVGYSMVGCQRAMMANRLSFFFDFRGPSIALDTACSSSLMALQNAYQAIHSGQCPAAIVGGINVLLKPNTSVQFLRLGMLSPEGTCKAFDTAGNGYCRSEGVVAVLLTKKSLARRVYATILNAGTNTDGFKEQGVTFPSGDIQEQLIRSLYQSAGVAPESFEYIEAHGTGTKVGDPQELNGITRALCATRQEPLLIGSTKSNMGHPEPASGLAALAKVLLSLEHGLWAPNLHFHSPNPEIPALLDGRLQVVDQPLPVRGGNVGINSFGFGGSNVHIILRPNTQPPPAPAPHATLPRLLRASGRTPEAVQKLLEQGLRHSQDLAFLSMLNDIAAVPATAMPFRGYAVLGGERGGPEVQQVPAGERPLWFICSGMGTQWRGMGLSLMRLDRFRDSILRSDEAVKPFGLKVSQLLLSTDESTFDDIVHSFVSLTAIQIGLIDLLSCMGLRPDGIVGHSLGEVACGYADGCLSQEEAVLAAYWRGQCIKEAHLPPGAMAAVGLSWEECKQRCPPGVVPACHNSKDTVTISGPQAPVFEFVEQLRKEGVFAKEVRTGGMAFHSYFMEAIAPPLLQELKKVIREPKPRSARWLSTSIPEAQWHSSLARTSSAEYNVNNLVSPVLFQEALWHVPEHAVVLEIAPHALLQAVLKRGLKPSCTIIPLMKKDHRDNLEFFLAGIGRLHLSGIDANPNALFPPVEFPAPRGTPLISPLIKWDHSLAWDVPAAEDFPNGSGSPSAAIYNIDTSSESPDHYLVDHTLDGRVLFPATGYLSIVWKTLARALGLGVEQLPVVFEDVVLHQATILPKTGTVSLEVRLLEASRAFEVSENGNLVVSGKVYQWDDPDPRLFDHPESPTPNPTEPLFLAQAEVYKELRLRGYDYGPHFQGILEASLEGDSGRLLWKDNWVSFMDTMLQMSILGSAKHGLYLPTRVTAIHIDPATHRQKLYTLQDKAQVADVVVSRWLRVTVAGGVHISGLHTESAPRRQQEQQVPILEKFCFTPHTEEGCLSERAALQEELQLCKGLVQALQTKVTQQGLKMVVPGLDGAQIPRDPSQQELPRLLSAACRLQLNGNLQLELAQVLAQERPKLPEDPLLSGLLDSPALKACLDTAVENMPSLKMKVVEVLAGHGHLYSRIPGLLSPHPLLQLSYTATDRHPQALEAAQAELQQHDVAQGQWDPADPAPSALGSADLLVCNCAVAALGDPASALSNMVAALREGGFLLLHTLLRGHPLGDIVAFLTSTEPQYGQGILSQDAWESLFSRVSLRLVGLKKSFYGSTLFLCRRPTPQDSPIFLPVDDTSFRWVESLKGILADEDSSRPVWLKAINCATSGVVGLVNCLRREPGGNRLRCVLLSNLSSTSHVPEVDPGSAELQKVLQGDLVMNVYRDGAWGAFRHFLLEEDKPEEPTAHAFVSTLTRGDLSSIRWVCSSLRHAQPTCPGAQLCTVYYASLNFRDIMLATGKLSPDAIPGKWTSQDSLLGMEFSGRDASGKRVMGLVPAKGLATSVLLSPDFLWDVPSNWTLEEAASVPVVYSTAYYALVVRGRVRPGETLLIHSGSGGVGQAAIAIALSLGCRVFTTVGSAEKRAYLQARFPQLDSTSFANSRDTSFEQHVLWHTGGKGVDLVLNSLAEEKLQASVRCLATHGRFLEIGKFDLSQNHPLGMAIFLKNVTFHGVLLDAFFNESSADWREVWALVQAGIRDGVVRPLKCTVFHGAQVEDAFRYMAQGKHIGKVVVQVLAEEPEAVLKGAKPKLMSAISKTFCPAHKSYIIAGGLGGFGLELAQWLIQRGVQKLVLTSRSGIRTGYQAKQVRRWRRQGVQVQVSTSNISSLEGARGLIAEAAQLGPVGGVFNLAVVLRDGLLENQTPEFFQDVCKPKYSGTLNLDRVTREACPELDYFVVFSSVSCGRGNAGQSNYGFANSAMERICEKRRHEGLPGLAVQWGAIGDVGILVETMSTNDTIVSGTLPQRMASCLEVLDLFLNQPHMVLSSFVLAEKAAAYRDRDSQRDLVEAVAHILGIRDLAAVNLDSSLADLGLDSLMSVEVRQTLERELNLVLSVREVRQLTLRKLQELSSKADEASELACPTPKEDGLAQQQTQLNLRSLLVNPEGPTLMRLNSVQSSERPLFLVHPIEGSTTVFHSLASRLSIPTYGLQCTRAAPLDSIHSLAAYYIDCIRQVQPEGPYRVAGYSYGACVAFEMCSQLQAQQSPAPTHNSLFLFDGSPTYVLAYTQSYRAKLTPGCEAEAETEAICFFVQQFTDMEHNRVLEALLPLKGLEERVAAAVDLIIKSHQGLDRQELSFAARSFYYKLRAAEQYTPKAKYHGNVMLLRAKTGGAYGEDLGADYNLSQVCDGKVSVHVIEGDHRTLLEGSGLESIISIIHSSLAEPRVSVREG
Sequence of Tyrosyl-DNA phosphodiesterase 2 (O95551 whole entry): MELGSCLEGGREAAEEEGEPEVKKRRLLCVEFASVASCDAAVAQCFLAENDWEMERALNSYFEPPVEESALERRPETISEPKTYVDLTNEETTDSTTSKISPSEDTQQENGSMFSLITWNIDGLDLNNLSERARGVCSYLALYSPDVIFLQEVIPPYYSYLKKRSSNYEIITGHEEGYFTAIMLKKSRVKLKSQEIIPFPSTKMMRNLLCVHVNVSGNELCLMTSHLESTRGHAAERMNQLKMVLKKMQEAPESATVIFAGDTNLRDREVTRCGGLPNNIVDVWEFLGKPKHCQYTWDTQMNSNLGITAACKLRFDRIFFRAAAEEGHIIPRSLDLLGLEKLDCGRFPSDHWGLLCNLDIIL
Sequence of Phospholipase A2 (P04054 whole entry, the tested form may be a part): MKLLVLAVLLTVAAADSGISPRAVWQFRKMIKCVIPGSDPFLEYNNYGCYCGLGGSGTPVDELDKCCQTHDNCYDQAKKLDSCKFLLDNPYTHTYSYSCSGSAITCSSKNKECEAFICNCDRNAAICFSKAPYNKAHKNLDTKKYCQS

In the case of `O=C(NC1(O)C(=O)c2ccccc2C1=O)c1ccccc1`, the AC50 (in general, the concentration giving half of the maximal activity seen) in experiment [1] was 6.87 µM (active). The IC50 (in general, the point on the concentration scale where inhibition reaches its midpoint) in [2] is 3.27 µM (active); at Caspase-3, 69.9 µM (active); in experiment [3], 25.5 µM (inactive).

For the compound `O=C(Nc1ccccc1Cl)/C(Cl)=C(\Cl)[S+]([O-])c1ccccc1` (centres undefined), the EC50 (in general, the concentration at which the effect is half-maximal) is > 38 µM (not active) in experiment [4], 1.53 µM (active) in [5] (Streptococcus sp. 'group A'), 5.14 µM (active) with Streptococcus (Streptococcus) and 331 nM (active) at Streptokinase A. The AC50 in [6] was < 0.195 µM (active). For the same compound, the IC50 at Fatty acid synthase is 3.28 µM (active).

Take `CCCCCCCCCCCCCCCCn1cc[n+](C)c1`: the EC50 was 1.74 µM (active) in [4]; 1.97 µM (active) in [5]; 1.72 µM (active) in experiment [5] (Streptococcus sp. 'group A'); 8.99 µM (active) in experiment [7] (NIH3T3); 8.81 µM (active) in experiment [7] (nih3t3); 4.64 µM (active) with Streptococcus. In addition, the EC50 with Streptococcus (Streptococcus) was 8.54 µM (active); on Streptokinase A, 5.97 µM (active) and > 150 µM (not active). Further, on Phospholipase A2, the IC50 is 5.78 µM (active). The AC50 in experiment [8] was 5.2 µM (active); in experiment [6], 3.48 µM (active).

On to `Cc1ccc(C)c(S(=O)(=O)/N=C2\C=C(NS(=O)(=O)c3ccccc3)C(=O)c3ccccc32)c1`, for which the AC50 in [1] was > 20 µM (inactive).

In the case of `Cc1cc(C)nc(/N=c2/ssnc2Cl)c1`, the CC50 (usually the concentration giving 50% cytotoxicity) in [9] was 17.4 µM (active). Besides, the EC50 in experiment [10] was > 79.4 µM (not active).
